Test results: patent US9403843B2, “Cysteine protease inhibitors and uses thereof” (The Trustees of Columbia University in the City of New York, priority 2012, dated 2016)
Where two headings read alike, the source gives them in different places.

Tests used:
full-length human Cal1 [1] = molecular target: T1, full-length human Cal1 (Homo sapiens (Human), UniProt P07384); assay: Calpain inhibition FRET assay; type: biochemical
Cal1cat vs CathB = assay: Competition assay for Cal1 vs CathB using the biotinylated epoxide probe; type: binding, rat
[2] = Acute and chronic toxicity, maximum tolerated dose; type: in vivo; conditions: mouse, in vivo; mice; no malaise or death
Description: For evaluation of acute and chronic toxicity we measured the maximum tolerated dose (MTD) in mice for 30a, 33 and 50.

[3] = Plasma pharmacokinetics after i.p. administration; type: in vivo; conditions: ICR mice
Protocol: Plasma concentrations of 30a, 33 and 50 were determined by LC-MS/MS after i.p. administration to ICR mice. The plasma concentrations at each sampling time are shown on FIG. 10. […] Indeed, following i.p. administration of 30a (7.57 mg/kg), 33 (7.86 mg/kg) and 50 (7.83 mg/kg), the peak plasma concentration occurred at 0.25, 0.5 and 0.125 h after dosing, respectively. […] The respective half-lives were ˜0.6 hrs, ˜1.1 hrs and ˜0.6 hrs.

APP/PS1 mice = assay: Behavioral rescue assays (contextual fear memory, 2-day RAWM reference memory); type: in vivo
Description: APP/PS1-vehicle: n=15; APP/PS1-67: n=6; APP/PS1-30a: n=10; WT-vehicle: n=15; WT-67=5; WT-30a: n=8, APP/PS1-33: n=11; WT-33: n=8, APP/PS1-50: n=10; WT-50: n=8. P<0.05 in all transgenic groups treated with compound compared to their respective vehicle-treated transgenics.
APP/PS1-vehicle: n=17; APP/PS1-67: n=9; APP/PS1-30a: n=10; WT-vehicle: n=18; WT-67=9; WT-30a: n=9, APP/PS1-33: n=10; WT-33: n=9, APP/PS1-50: n=11; WT-50: n=9.
The ability of compounds to rescue the defects in associative and reference memory in 3 month old APP/PS1 animals was assessed. Capability of ameliorating the defects in contextual fear memory was tested via i.p. administration (FIG. 12). In the 2-day RAWM test, daily injections of the 67, 30a, 33 and 50 from the 2nd month of age were beneficial against the loss of contextual fear memory and reference memory.
Impact of chronic treatment on against memory loss in older APP/PS1 mice (7 months of age) with a more severe plaque load was also investigated. Compounds 67, 33 and 50 were beneficial against memory impairment following chronic administration (FIG. 13).
The ability of a prodrug to rescue the defects in associative and reference memory in 3 month old APP/PS1 animals was assessed. […] Thus, the esterification seems to improve PK but it spoils PD parameters. Compound 89 ameliorates both LTP and memory in 3 month old APP/PS1 mice (FIG. 15). Daily treatment with 89 from the age of 2 months until 3 months ameliorated the defect in LTP (A) contextual fear memory (B) and reference memory (C) in APP/PS1 mice. n=10 for all groups. P<0.05 in transgenics treated with compound compared to their respective vehicle-treated transgenics.

Aβ40 and Aβ42 = assay: Effect on Aβ levels in APP/PS1 mice; type: in vivo; conditions: compound-treated vs vehicle-treated APP/PS1 transgenics
Description: Increase of brain and plasma levels of Aβ and appearance of amyloid plaques is an important feature of AD.

full-length human Cal1 [4] = molecular target: T1, full-length human Cal1; assay: Calpain inhibition FRET assay; type: biochemical; conditions: Table 3, 20 min incubation, FRET substrate
[5] = APP/PS1 mice, daily treatment from 2 until 7 months

T1 sequence (P07384 whole entry): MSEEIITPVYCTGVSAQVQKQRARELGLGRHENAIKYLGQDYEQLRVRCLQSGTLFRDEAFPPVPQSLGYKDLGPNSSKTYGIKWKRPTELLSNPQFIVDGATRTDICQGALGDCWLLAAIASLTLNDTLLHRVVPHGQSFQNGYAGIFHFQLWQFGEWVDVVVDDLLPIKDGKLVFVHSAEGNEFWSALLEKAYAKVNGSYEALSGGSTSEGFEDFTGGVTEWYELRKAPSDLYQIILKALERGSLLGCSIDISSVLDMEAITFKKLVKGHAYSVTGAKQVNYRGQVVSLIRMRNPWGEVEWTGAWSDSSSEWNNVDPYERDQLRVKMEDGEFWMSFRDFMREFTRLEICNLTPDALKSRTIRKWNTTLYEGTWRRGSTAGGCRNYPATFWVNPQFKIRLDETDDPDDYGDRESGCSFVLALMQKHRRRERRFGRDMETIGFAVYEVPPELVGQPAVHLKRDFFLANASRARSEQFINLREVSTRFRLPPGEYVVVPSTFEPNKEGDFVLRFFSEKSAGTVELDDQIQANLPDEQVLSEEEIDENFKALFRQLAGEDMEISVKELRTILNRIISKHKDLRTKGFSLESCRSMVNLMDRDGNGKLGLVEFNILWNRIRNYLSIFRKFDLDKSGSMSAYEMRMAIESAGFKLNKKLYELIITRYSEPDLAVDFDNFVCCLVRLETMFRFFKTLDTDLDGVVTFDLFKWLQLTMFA
T1 sequence (P04632 whole entry partner): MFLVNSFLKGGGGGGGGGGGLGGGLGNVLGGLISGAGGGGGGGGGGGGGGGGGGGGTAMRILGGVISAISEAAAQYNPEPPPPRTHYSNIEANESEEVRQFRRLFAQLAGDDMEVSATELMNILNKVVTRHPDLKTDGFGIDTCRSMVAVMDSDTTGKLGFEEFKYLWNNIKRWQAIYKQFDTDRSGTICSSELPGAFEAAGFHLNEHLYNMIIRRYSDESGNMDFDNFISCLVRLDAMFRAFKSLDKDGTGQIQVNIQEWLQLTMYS

Compound: O=C(O)C1OC1C(=O)N[C@@H](Cc1cscn1)C(=O)Nc1nc(-c2ccc(F)cc2)cs1 (stereo in doubt) [Compound 33, (2S,3S)-3-((S)-1-(4-(4-fluorophenyl)thiazol-2-ylamino)-1-oxo-3-(thiazol-4-yl)propan-2-ylcarbamoyl)oxirane-2-carboxylic acid]
- IC50 (full-length human Cal1 [1]; Cal1, values stated in text, read-out: IC50): ~100 nM
- IC50 (full-length human Cal1 [1]; Table 2, approximate IC50, read-out: Cal I IC50): 100 nM
- blocking of active site modification by probe 27 (western blot signal) (Cal1cat vs CathB; 10 min pre-treatment, then 20 min with 27): little change in the CathB signal
- selectivity for Cal1cat (ratio of Cal1cat versus CathB band intensities) (Cal1cat vs CathB; ratio for probe 27 alone set as 1.0, inhibitor 5 μM): highest selectivity
- MTD [2]: 150 mg/kg
- time of peak plasma concentration ([3]; i.p., 30a 7.57, 33 7.86, 50 7.83 mg/kg): 0.5 h
- half-life ([3]; mouse, ip, plasma): ~1.1 h
- bioavailability ([3]; mouse, plasma, ip, after i.p. administration, read-out: absolute bioavailability): 87.3%
- reference memory (APP/PS1 mice; 3 month old APP/PS1 mice, 2-day RAWM, daily from 2 months): beneficial
- contextual fear memory (APP/PS1 mice; 3 month old APP/PS1 mice, daily i.p. from 2 months): beneficial
- memory impairment (APP/PS1 mice; 7 month old APP/PS1 mice, chronic administration): beneficial
- contextual fear memory (APP/PS1 mice; [5]): ameliorated
- reference memory (APP/PS1 mice; [5]): ameliorated
- Aβ40 and Aβ42 levels in hippocampi (Aβ40 and Aβ42): no difference was detected
- IC50 (full-length human Cal1 [4]): 100 nM
